ChEMBL document CHEMBL1143471, “Synthesis of [1,2,4]triazolo[1,5-a]pyrazines as adenosine A2A receptor antagonists” (Bioorg Med Chem Lett, 2005)

What was measured:
Adenosine receptor A2a = Adenosine receptor A2a (Rattus norvegicus, UniProt P30543); experiment: biochemical
Adenosine receptor A1 = molecular target: T1, Adenosine receptor A1 (Rattus norvegicus, UniProt P25099); experiment: biochemical
T1 sequence (P25099 whole entry): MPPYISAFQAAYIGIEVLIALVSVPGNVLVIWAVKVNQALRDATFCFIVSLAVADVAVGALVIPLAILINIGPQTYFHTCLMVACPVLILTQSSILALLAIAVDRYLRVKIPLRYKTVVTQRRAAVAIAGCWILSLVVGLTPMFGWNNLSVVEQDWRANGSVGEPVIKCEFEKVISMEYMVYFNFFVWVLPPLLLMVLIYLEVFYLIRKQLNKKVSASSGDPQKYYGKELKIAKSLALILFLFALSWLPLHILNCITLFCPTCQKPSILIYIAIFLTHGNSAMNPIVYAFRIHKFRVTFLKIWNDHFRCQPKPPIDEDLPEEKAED

Chain of Adenosine receptor A2a (P30543 whole entry): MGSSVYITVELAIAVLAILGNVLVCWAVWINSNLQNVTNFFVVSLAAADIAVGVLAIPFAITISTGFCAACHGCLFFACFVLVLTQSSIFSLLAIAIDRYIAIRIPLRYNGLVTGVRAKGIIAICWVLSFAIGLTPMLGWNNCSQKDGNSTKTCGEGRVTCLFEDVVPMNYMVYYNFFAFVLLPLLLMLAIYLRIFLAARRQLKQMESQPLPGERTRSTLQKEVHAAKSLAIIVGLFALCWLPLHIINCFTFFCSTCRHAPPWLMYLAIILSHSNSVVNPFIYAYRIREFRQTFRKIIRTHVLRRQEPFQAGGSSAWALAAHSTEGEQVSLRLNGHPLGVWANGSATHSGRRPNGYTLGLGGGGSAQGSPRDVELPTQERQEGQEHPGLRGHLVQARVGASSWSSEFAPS

Row | SMILES | Ki (Adenosine receptor A2a) | Ki (Adenosine receptor A1)
1 | Nc1nc(-c2ccc([N+](=O)[O-])cc2)cn2nc(-c3ccco3)nc12 | > 1000 nM | 
2 | Nc1nc(-c2cccc(C(=O)NCCc3ccc(O)cc3)c2)cn2nc(-c3ccco3)nc12 | 180 nM | > 250 nM
3 | Nc1nc(-c2cccnc2)cn2nc(-c3ccco3)nc12 | 460 nM | 
4 | Nc1nc(C(=O)N2CCN(Cc3ccccc3)CC2)cn2nc(-c3ccco3)nc12 | > 250 nM | > 250 nM
5 | Nc1nc(-c2cncnc2)cn2nc(-c3ccco3)nc12 | 360 nM | 
6 | Nc1nc(C(=O)N2CCOCC2)cn2nc(-c3ccco3)nc12 | > 250 nM | > 250 nM
7 | CCN(CC)C(=O)c1cccc(-c2cn3nc(-c4ccco4)nc3c(N)n2)c1 | 1 nM | 41 nM
8 | Nc1cccc(-c2cn3nc(-c4ccco4)nc3c(N)n2)c1 | 630 nM | 
9 | CN(C)c1cccc(-c2cn3nc(-c4ccco4)nc3c(N)n2)c1 | 140 nM | 
10 | Nc1nc(-c2ccc(C(=O)NCCc3ccc(O)cc3)cc2)cn2nc(-c3ccco3)nc12 | 830 nM | 36 nM
11 | CN(Cc1ccccc1)C(=O)c1cn2nc(-c3ccco3)nc2c(N)n1 | 27 nM | 160 nM
12 | Nc1nc(C(=O)NCc2ccccc2)cn2nc(-c3ccco3)nc12 | 2 nM | 14 nM
13 | CC(C)c1cccc(-c2cn3nc(-c4ccco4)nc3c(N)n2)c1 | 680 nM | 
14 | Nc1nc(-c2cccc3cccnc23)cn2nc(-c3ccco3)nc12 | 250 nM | 
15 | CC(=O)Nc1cccc(-c2cn3nc(-c4ccco4)nc3c(N)n2)c1 | 160 nM | 
16 | Nc1nc(-c2cccc(CO)c2)cn2nc(-c3ccco3)nc12 | 470 nM | 
17 | CS(=O)(=O)c1cccc(-c2cn3nc(-c4ccco4)nc3c(N)n2)c1 | 110 nM | 
18 | Nc1nc(C(=O)NCCc2ccc(O)cc2)cn2nc(-c3ccco3)nc12 | 1 nM | 320 nM
19 | CN(C)C(=O)c1cccc(-c2cn3nc(-c4ccco4)nc3c(N)n2)c1 | 70 nM | 120 nM

Second part, the molecule after the results:

Row | Ki (Adenosine receptor A2a) | Ki (Adenosine receptor A1) | SMILES
20 | 420 nM |  | Nc1nc(-c2cccc3ccccc23)cn2nc(-c3ccco3)nc12
21 | > 1000 nM |  | Nc1nc(-c2cccc(C(=O)O)c2)cn2nc(-c3ccco3)nc12
22 | 680 nM | > 250 nM | Nc1nc(-c2cccc(C(=O)N3CCN(Cc4ccccc4)CC3)c2)cn2nc(-c3ccco3)nc12
23 | 460 nM |  | Nc1nc(-c2cccc([N+](=O)[O-])c2)cn2nc(-c3ccco3)nc12
24 | 330 nM | > 250 nM | Nc1nc(-c2ccc(C(=O)NCCCn3ccnc3)cc2)cn2nc(-c3ccco3)nc12
25 | 240 nM | < 250 nM | Nc1nc(-c2cccc(C(=O)N3CCOCC3)c2)cn2nc(-c3ccco3)nc12
26 | > 250 nM | > 250 nM | Nc1nc(C(=O)N2CCN(c3ccncc3)CC2)cn2nc(-c3ccco3)nc12
27 | > 1000 nM |  | CN(C)c1ccc(-c2cn3nc(-c4ccco4)nc3c(N)n2)cc1
28 | 75 nM |  | CC(=O)c1cccc(-c2cn3nc(-c4ccco4)nc3c(N)n2)c1
29 | 730 nM | 3 nM | Nc1nc(-c2cccc(C(=O)N3CCN(c4ccncc4)CC3)c2)cn2nc(-c3ccco3)nc12
30 | > 1000 nM |  | CCOC(=O)c1ccc(-c2cn3nc(-c4ccco4)nc3c(N)n2)cc1
31 | > 1000 nM |  | Nc1nc(-c2ccc(CO)cc2)cn2nc(-c3ccco3)nc12
32 | > 1000 nM |  | Nc1ccc(-c2cn3nc(-c4ccco4)nc3c(N)n2)cc1
33 | > 1000 nM |  | Nc1nc(-c2ccc(C(F)(F)F)cc2)cn2nc(-c3ccco3)nc12
34 | 370 nM |  | CCOC(=O)c1cccc(-c2cn3nc(-c4ccco4)nc3c(N)n2)c1
35 | 220 nM |  | Nc1nc(-c2cccc(C(F)(F)F)c2)cn2nc(-c3ccco3)nc12
36 | 28 nM | 240 nM | Nc1nc(C(=O)NCCCc2ccccc2)cn2nc(-c3ccco3)nc12
37 | > 1000 nM |  | N#Cc1ccc(-c2cn3nc(-c4ccco4)nc3c(N)n2)cc1
38 | 110 nM |  | NC(=O)c1cccc(-c2cn3nc(-c4ccco4)nc3c(N)n2)c1
39 | 160 nM |  | N#Cc1cccc(-c2cn3nc(-c4ccco4)nc3c(N)n2)c1
40 | 400 nM |  | Nc1nc(-c2ccco2)cn2nc(-c3ccco3)nc12
41 | 270 nM |  | COc1cccc(-c2cn3nc(-c4ccco4)nc3c(N)n2)c1
42 | 140 nM | 290 nM | CC(C)NC(=O)c1cccc(-c2cn3nc(-c4ccco4)nc3c(N)n2)c1
43 | 19 nM | 1800 nM | Nc1nc(-c2ccc(C(=O)N3CCOCC3)cc2)cn2nc(-c3ccco3)nc12
44 | 1 nM | 120 nM | CCCCNC(=O)c1cn2nc(-c3ccco3)nc2c(N)n1
